Assay: Food intake test in food-deprived rats (anorectic activity)
Assay type: in vivo, Male Sprague-Dawley derived rats
Conditions: rat, 32.0 mg/kg i.g., 24 h food-deprived, food given 30 min after dosing; for Food Intake, % of control, 1 Hr.: 1 hour intake; for Food Intake, % of control, 2 Hr.: 2 hour intake; for Food Intake, % of control, 6 Hr.: 6 hour intake
Description: Male Sprague-Dawley derived rats, Charles River Breeders (Portage, MI), weighing between 200-400 grams at the time of testing, were employed in the food intake studies and water intake studies. The rats were housed individually and kept on a 12 hour light-dark-light cycle. The room temperature ranged between 23°-25° C. The rats employed in food intake testing were food deprived on the day preceding testing and were divided into experimental groups that were matched on the basis of average daily food intake and body weight. At approximately 24 hour post-deprivation, the rats were administered a test sample containing as the active ingredient a compound of the present invention. All test samples employed herein were prepared and homogenized in a vehicle of normal saline (to which a few drops of PG/Tween 80 was added). The test samples were administered at an injection volume of 2 ml/kg, unless otherwise stated. Thirty minutes following administration of the test samples, pre-weighed food jars containing ground meal were placed in the rats' cages. (Prior to testing the rats were given ground meal for a minimum of 3 days to familiarize the rats with this food.) After 1, 2 and 6 hours of food access, the jars were removed, weighed and returned to the rats' cages providing a 1, 2 and 6 hours intake measurement. […] The results obtained are represented in Table I as a percent of control values. A student t test was used for making statistical comparisons, and the p-values are based upon two-tailed comparisons. The compound employed as the active ingredient on the test sample is indicated by the example number which describes its preparation.

| Compound | Food Intake, % of control, 1 Hr. | Food Intake, % of control, 2 Hr. | Food Intake, % of control, 6 Hr. |
| --- | --- | --- | --- |
| CN(C)CCNC(=O)c1cnc2c3ccccc3ccn2c1=O [Example 5] | 82.4 % of control | 87.5 % of control | 88.3 % of control |
| Cl.Cl.NCc1cnc2c3ccccc3ccn2c1=O [Example 3, 3-(aminomethyl)-4H-pyrimido[2,1-a]isoquinolin-4-one, dihydrochloride] | 51.3 % of control | 71.4 % of control | 92.3 % of control |
| CC(=O)OCc1cnc2c3ccccc3ccn2c1=O [Example 2, 3-(hydroxymethyl)-4H-pyrimido[2,1-a]isoquinolin-4-one acetate] | 51.4 % of control | 67.1 % of control | 89.8 % of control |
| CCN(CC)CCOCc1cnc2c3ccccc3ccn2c1=O.Cl.Cl [Example 4, 3-[[2-(diethylamino)ethoxy]methyl]-4H-pyrimido[2,1-a]isoquinolin-4-one dihydrochloride] | 70.8 % of control | 80.8 % of control | 90.9 % of control |
| O=c1c(CO)cnc2c3ccccc3ccn12 [Example 1, 3-(hydroxymethyl)-4H-pyrimido [2,1-a]isoquinolin-4-one] | 61.8 % of control | 77.4 % of control | 90.4 % of control |

From patent US4661592A, “4H-pyrimido[2,1-a]isoquinolin-4-one derivatives” (G. D. Searle & Co., priority 1984, dated 1987)
